Measurements reported in patent US12195493B2, “Reversibly blocked nucleoside analogues and their use” (MGI Tech Co., Ltd., priority 2016, dated 2025).
“Also recorded” adds a separate entry of the source.

Key:
[1] = 3′-O-Cyanoethyl cleavage in solution or on Biochips; settings: added reagent in cleavage buffer, FIGS. 2 and 3
polymerase = assay: Polymerase incorporation in sequencing by synthesis on nanoball arrays (FIG. 1); assay type: biochemical; settings: compared with unlabeled (cold) control 3′-O-azidomethyl-dTTP
Method: (§1) Allenyl-dTTP and cyanoethenyl-dTTP were incubated at room temperature for 24 hours, or 65° C. for 2 hours. Fresh mixes were also made the day of the experiment. Allenyl-dTTP or cyanoethenyl-dTTP were mixed with unlabeled AGC (AGC-Cold) and used as both the hot (labeled) and cold (unlabeled) chase. Nanoball arrays were imaged to obtain a control image. Then, the array was incubated with labeled mixes to check for incorporation on unblocked ends. […] Moreover, both allenyl-dTTP and cyanoethenyl-dTTP are stable at room temperature for 24 hours and 65° C. for 2 hours as indicated by their ability to efficiently incorporate into polymerization product and thereby block subsequent polymerization and incorporation of the hot chase label.

[2] = Stability after incubation, read out by incorporation and blocking of hot chase label; assay type: physicochemical
Method: as §1

[3] = Monitoring cleavage of 3′-O reversible blocker by LC-MS (Example 2); assay type: physicochemical
Method: Cleavage reactions were performed using 5 mg of compound 8 (3′-O-cyanoethyenyl-thymidine) in 0.25 mL of acetonitrile and 0.25 mL of buffer. Cleavage was monitored by LC-MS and the results are depicted in the table below.

[4] = Cleavage studies with a variety of nucleophiles at 50° C. (Example 6); assay type: physicochemical
Method: Cleavage studies were performed according to the scheme shown below using a variety of nucleophiles. The nucleophiles, concentration, pH, and solvent are indicated for each study. The nucleoside analogue containing a 3′-O-blocking group and a linking group were treated with a nucleophile at 50° C. in solvent to form analogues having both the blocking group and linking group cleaved 13 and only the linking group cleaved 15. SM indicates starting material.
Table of Results (Experimental Conditions: T=50° C.; 1.0 mg 12/mL solvent).

F [F^−]
effect on cleavage efficiency [1]: improved effect

O=P([O-])([O-])OP(=O)([O-])[O-].[K+].[K+].[K+].[K+] [K4PPi]
effect on cleavage efficiency [1]: improved effect

C=C=CO[C@H]1C[C@H](n2cc(C)c(=O)[nH]c2=O)O[C@@H]1COP(=O)(O)OP(=O)(O)OP(=O)(O)O [allenyl-dTTP, 3′-O-allenyl-thymidine triphosphate]
effectiveness as polymerase substrate for sequencing by synthesis (polymerase): as effective a polymerase substrate for sequencing by synthesis as the unlabeled control 3′-O-azidomethyl-dTTP; also recorded: as effective polymerase substrates for sequencing as the cold control, 3′-azidomethyl-dTTP | stability ([2]; 65° C. for 2 hours): stable | stability ([2]; room temperature for 24 hours): stable

Cc1cn([C@H]2C[C@H](OC=CC#N)[C@@H](CO)O2)c(=O)[nH]c1=O [compound 8, 3′-O-cyanoethenyl-thymidine]
time to complete cleavage ([3]; 10 equivalents of dimethylamine in acetonitrile/0.1 M TEAB): 20 to 30 min | time to complete cleavage ([3]; 40 equivalents of dimethylamine in acetonitrile/0.1 M TEAB): ≤ 10 min | time to complete cleavage ([3]; 40 equivalents of dimethylamine in acetonitrile/0.5 M phosphate buffer): 10 to 20 min | time to complete cleavage ([3]; 40 equivalents of dimethylamine in acetonitrile/1 M Tris buffer): ≤ 10 min

N#C/C=C/O[C@H]1C[C@H](n2cc(C#CCNC(=O)C(F)(F)F)c(=O)[nH]c2=O)O[C@@H]1CO [compound 12]
amount of the product obtained (SM = starting material) ([4]; Entry 22, Morpholine 1.0 M, pH 9.0, Water + 10% MeCN, t = 1 h): 25% SM + 40% of (15) + 35% of unidentified species | amount of the product obtained (SM = starting material) ([4]; Entry 22, Morpholine 1.0 M, pH 9.0, Water + 10% MeCN, t = 18 h): No SM 40% of (15) + 60% of unidentified species | amount of the product obtained (SM = starting material) ([4]; Entry 24, Cleland's reagent (dithiothreitol) 1.0 M, pH 9.0, Water + 10% MeCN, t = 1 h): 5% SM + 95% of unidentified species | amount of the product obtained (SM = starting material) ([4]; Entry 24, Cleland's reagent (dithiothreitol) 1.0 M, pH 9.0, Water + 10% MeCN, t = 18 h): No SM + unidentified species | amount of the product obtained (SM = starting material) ([4]; Entry 25, 4-Methoxy-N-methylaniline 1.0 M, pH 8.3, Water/MeCN (1:2), t = 1 h): 95% SM + 5% of unidentified species | amount of the product obtained (SM = starting material) ([4]; Entry 25, 4-Methoxy-N-methylaniline 1.0 M, pH 8.3, Water/MeCN (1:2), t = 18 h): 95% SM + 5% of unidentified species | amount of the product obtained (SM = starting material) ([4]; Entry 26, N,N′-Dimethylene diamine 1.0 M, pH 9.0, Water + 10% MeCN, t = 1 h): 5% SM + 20% of (15) + 75% of unidentified species | amount of the product obtained (SM = starting material) ([4]; Entry 26, N,N′-Dimethylene diamine 1.0 M, pH 9.0, Water + 10% MeCN, t = 18 h): No SM + 20% of (15) + 80% of unidentified species | amount of the product obtained (SM = starting material) ([4]; Entry 27, N-Methylhydroxyl amine hydrochloride 1.0 M, pH 9.0, Water + 10% MeCN, t = 1 h): 16% Product (13) + 10% of (15) + 74% of unidentified species | amount of the product obtained (SM = starting material) ([4]; Entry 27, N-Methylhydroxyl amine hydrochloride 1.0 M, pH 9.0, Water + 10% MeCN, t = 18 h): 10% of (15) + 90% of unidentified species | amount of the product obtained (SM = starting material) ([4]; Entry 28, N,N′-dimethyl-cis-cyclohexane-1,2-diamine 1.0 M, pH 9.0, Water/MeCN (2:1), t = 1 h): 60% SM + 35% of (15) + 5% of unidentified species | amount of the product obtained (SM = starting material) ([4]; Entry 28, N,N′-dimethyl-cis-cyclohexane-1,2-diamine 1.0 M, pH 9.0, Water/MeCN (2:1), t = 18 h): 30% SM + 50% of (15) + 20% of unidentified species

Cc1cn([C@H]2C[C@H](OC=CC#N)[C@@H](COP(=O)(O)OP(=O)(O)OP(=O)(O)O)O2)c(=O)[nH]c1=O [cyanoethenyl-dTTP, 3′-O-cyanoethenyl-thymidine triphosphate]
effectiveness as polymerase substrate for sequencing by synthesis (polymerase): as effective a polymerase substrate for sequencing by synthesis as the unlabeled control 3′-O-azidomethyl-dTTP | effectiveness as polymerase substrate for sequencing by synthesis (polymerase; listed as cyanoethyl-dTTP): as effective polymerase substrates for sequencing as the cold control, 3′-azidomethyl-dTTP | stability ([2]; 65° C. for 2 hours): stable | stability ([2]; room temperature for 24 hours): stable
